Experimental data: patent US11484536B2, “Method of treating metastatic cancer in a subject with a protein inhibitor” (City University of Hong Kong, priority 2020, dated 2022)
Entries after “also recorded” stand apart in the source; their conditions may differ.

Columns and labels:
[1] = tested on: 4T1 mouse breast cancer cells; experiment: Spontaneous cancer mouse model, fat pad injection of 4T1 cells into nude mice; details: 6J-1 30 mg/kg, oral, every day, 4 weeks
Procedure: FIG. 5A is a schematic diagram showing a method for determining the anti-metastatic activity of V1 in female nude mice with their fat pads injected with 4T1 cells, where V1 is administered to the mice via an oral gauge. FIG. 5B is a series of optical images showing the excised lungs of the mice treated with a buffer or V1 (15 or 30 mg/kg, daily) via the oral gauge for 4 weeks. FIG. 5C is a line plot showing the number of tumor nodules in the excised lungs against different concentrations of V1.
FIG. 29A is a series of optical images showing the excised lungs of female nude mice treated with a buffer or 6J-1 (30 mg/kg, oral delivery, daily) for 4 weeks. FIG. 29B is a line plot showing the number of tumor nodules in the excised lungs of the mice of FIG. 29A.
First, we studied V1's anti-metastatic effects in a spontaneous cancer mouse model by fat pad injecting 4T1 mouse breast cancer cells into nude mice (FIG. 5A). After tumors were palpable (˜5 mm, around day 9), the mice were randomly divided into three groups (six mice per group) orally treated with or without V1 (15 or 30 mg/ml) every day. After 4 weeks, the mice were sacrificed; the primary tumors and lungs of the mice were harvested for analysis.

[2] = tested on: HeLa, A549, or MDA-MB-231 cells; experiment: Cytotoxicity of 6J-1 by PI staining and living cell number; assay type: cell-based
Procedure: FIG. 24A is a bar chart showing the percentage of cell death of HeLa cells treated with or without 6J-1 at the indicated concentrations for 24 or 48 h. FIG. 24B is a bar chart showing the percentage of cell death of A549 cells treated with or without 6J-1 at the indicated concentrations for 24 or 48 h. FIG. 24C is a bar chart showing the percentage of cell death of MDA-MB-231 cells treated with or without 6J-1 at the indicated concentrations for 24 or 48 h.
FIG. 25A is a line chart showing the number of HeLa cells treated with or without 6J-1 at the indicated concentrations for 0, 24 or 48 h. FIG. 25B is a line chart showing the number of MDA-MB-231 cells treated with or without 6J-1 at the indicated concentrations for 0, 24 or 48 h. FIG. 25C is a line chart showing the number of A549 cells treated with or without 6J-1 at the indicated concentrations for 0, 24 or 48 h.
The cytotoxicity of 6J-1 on different cancer cell lines has been examined by PI staining, and the cell number of living cells was quantified as well. As shown in FIGS. 24A-24C and 25A-25C, 6J-1 is non-cytotoxic to HeLa, A549, or MDA-MB-231 cells at concentrations of 0.01-10 μM. Even at a concentration of as high as 100 μM, there were over 80% of the 6J-1-treated cells remained alive.

[3] = tested on: 4T1, A549, HCCLM3, and HepG2; experiment: Colony formation of cancer cell lines; assay type: cell-based; details: indicated concentrations
Description: FIG. 26 is a series of optical images showing colony formation of 4T1, A549, HCCLM3, and HepG2 cells treated with or without 6J-1 at the indicated concentrations.
(§1) The inhibitory effect of 6J-1 on colony formation of several cancer cell lines, including 4T1, A549, HCCLM3, and HepG2 has been examined. […] Overall, 6J-1 is found to be as potent as V1.

A549 cells = experiment: Invasion of cancer cells treated with 6J-1; assay type: cell-based; details: 6J-1 1 μM
Procedure: FIG. 28 is a pair of microscopic images showing the invasion of A549 cells treated with or without 6J-1 (1 μM).
as §1

HeLa cells [4] = experiment: LC3-II and p62 accumulation immunoblot; assay type: cell-based
Procedure: FIG. 12A is a synthetic scheme of a V1 analog carrying a clickable terminal alkynyl group. FIG. 12B is a synthetic scheme of azide-biotin. FIG. 12C is a synthetic scheme of Vi-biotin.
FIG. 23A is a schematic diagram illustrating the structure of 6J-1.
Subsequently, biotin-V1 was administered to HeLa cell extracts, the V1 binding complex was purified with streptavidin beads, and subjected to mass analysis. There were 85 potential V1 binding proteins identified in three independent experiments with high fidelity (FIG. 13A). Among them, 32 proteins were clustered in endocytosis and vesicle-mediated transport pathways using KOBAS online software.
In this example, a 6-morpholino-1,3,5-triazine derivative, 6J-1 was synthesized and used as an exemplary example to illustrate the inhibitory effect of 6-morpholino-1,3,5-triazine derivatives on endosomal trafficking and metastasis. As illustrated above, the induction of accumulation of LC3-II and p62 by biotin-V1 would accompany with the induction of vacuoles as well as the inhibition of transferrin degradation (see Example 4).

A549 and HepG2 cells = experiment: Migration of cancer cells treated with 6J-1; assay type: cell-based; details: 6J-1 1 μM
Procedure: FIG. 27A is a pair of microscopic images showing the migration of A549 cells treated with or without 6J-1 (1 μM). FIG. 27B is a series of microscopic images showing the migration of HepG2 cells treated with or without V1 (1 μM) or 6J-1 (1 μM).
as §1

[5] = tested on: 4T1, 4T07, and MDA-MB-231 cells; experiment: Trans-well migration assay; assay type: cell-based, human or mouse; details: indicated concentrations, 18 h, compared with V1
Procedure: FIG. 2A is a series of microscopic images and bar charts showing the migration of 4T1, 4T07, and MDA-MB-231 cells in transwell plates in the presence or absence of V1 (1 μM). FIG. 2B is a series of microscopic images and bar charts showing the invasion of 4T1, 4T07, and MDA-MB-231 cells in invasion chambers in the presence or absence of V1 (1 μM). FIG. 2C is a series of optical images and a bar chart showing the closure of a scratch-wound plated with 4T1 cells, treated with or without V1 (1 μM), after 0, 24, and 48 h. FIG. 2D is a series of optical images and a bar chart showing the closure of a scratch-wound plated with 4T07 cells, treated with or without V1 (1 μM), after 0, 24, and 48 h. FIG. 2E is a series of microscopic images showing the migration of 4T07 cells in transwell plates in the presence or absence of V1 or LA at indicated concentrations after 18 h. […]
In this example, the cytotoxicity and the anti-migration effects of V1 are compared with latrunculin A (LA), an F-actin destabilizer. […] The breast cancer cells were placed on the upper chamber of the transwell plates or invasion chambers coated with Matrigel in the presence or absence of V1, after 18 h of incubation, the cells at the lower chamber were stained with crystal violet and quantified. […]

HeLa cells [6] = experiment: Focal adhesion dynamics after nocodazole release (Vinculin puncta); assay type: cell-based; details: nocodazole treatment
Description: The indicated time points represent at which NOC was removed from the HeLa cells, followed by staining the cells with anti-Vinculin antibody and Phalloidin. […] The indicated time points of FIGS. 3B and 3C represent at which the HeLa cells were released from cold arrest, followed by being stained with antibodies against EEA1 or LAMP1.
Focal adhesion (FA) dynamics is a key process during cell migration and therefore the effects of V1 treatment on spatiotemporal regulation of FA dynamics have been assessed. HeLa cells were plated on cover slides at 24-well plates and treated with nocodazole (NOC) in the presence or absence of V1 (1 μM). At indicated times, after removing NOC, the cells were stained with anti-Vinculin antibody and Phalloidin, and the Vinculin puncta were quantified.

[7] = molecular target: T1, recombinant CapZβ-CapZα heterodimer (Homo sapiens, UniProt P47756); experiment: Streptavidin pulldown with purified recombinant CapZα and CapZβ; assay type: binding; details: in vitro
T1 construct: His6
Procedure: FIG. 14D is a pair of immunoblots of purified CapZα and CapZβ recombinant proteins after incubated with Biotin-V1. FIG. 14E is a CapZβ immunoblot of lysate of HeLa cells treated with biotin or Biotin-V1.
The expression of these genes in HeLa cells were knocked out by CRISPR/Cas9 to assess whether the ability of V1 inducing vacuole formation or endocytosis arrest would be affected by these knockdowns. […] CapZα and CapZβ are the α and β subunits of the actin capping protein (CP), also called CapZ, and the CapZβ-CapZα heterodimeric complex normally binds to the barbed ends of actin filaments to prevent further filament elongation. To investigate whether biotin-V1 or biotin alone would be able to bind with the CapZβ-CapZα heterodimeric complex, the inventors have incubated biotin or bioin-V1 with purified His6-CapZα and His6-CapZβ recombinant proteins, or purified CapZα and CapZβ proteins, followed by subjecting the mixture to streptavidin pulldown. The streptavidin pulldowns were analyzed by His6 immunoblotting, coomassie blue staining or CapZβ immunoblotting. […] In addition, in another experiment, HeLa cells were treated with biotin or biotin-V1 and the lysate thereof was incubated with streptavidin beads, followed by subjecting to streptavidin pulldown.

Structure (SMILES): OCCOCCN(c1ccccc1)c1nc(N/N=C/c2cccc(I)c2)nc(N2CCOCC2)n1 [6J-1]
- metastasis of 4T1 cells (tumor nodules in the lungs) [1]: significantly inhibited the metastasis of 4T1 cells
- treated cells remained alive ([2]; 100 μM): over 80%
- cytotoxicity ([2]; 0.01-10 μM, 24 or 48 h): non-cytotoxic
- colony formation [3]: inhibitory on the colony formation of all the aforementioned cell lines in a dose dependent manner
- invasion of cancer cells (A549 cells): capable of inhibiting migration and invasion of cancer cells
- accumulation of LC3-II and p62 (HeLa cells [4]): highly comparable result as V1; also recorded: induces comparable accumulation of LC3-II and p62 in HeLa cells as V1
- migration of cancer cells (A549 and HepG2 cells): capable of inhibiting migration and invasion of cancer cells

Structure (SMILES): C/C1=C/C(=O)O[C@@H]2C[C@@H](CC[C@H](C)/C=C\C=C\CC1)O[C@@](O)([C@@H]1CSC(=O)N1)C2 [LA, latrunculin A]
- migration of 4T07 cells [5]: much lower effect on the migration of 4T07 cells at similar concentrations of V1

Structure (SMILES): COC(=O)Nc1nc2ccc(C(=O)c3cccs3)cc2[nH]1 [NOC, nocodazole]
- effect on microtubules and formation of FAs (HeLa cells [6]): depolymerized the microtubules and stabilized the formation of FAs

Structure (SMILES): O=C(O)CCCC[C@@H]1SC[C@@H]2NC(=O)N[C@@H]21 [biotin]
- interaction with recombinant CapZβ-CapZα heterodimer [7]: not biotin alone
